Legend:
[1] = target: T1, human mGluR5d (Homo sapiens, UniProt P41594); test: FLIPR assay, mobilization of intracellular calcium in cells expressing human mGluR5d; assay type: cell-based; details: antagonism in cells expressing human mGluR5d, fluo-4 calcium signal; read-out: FLIPR hmGluR5d
T1 construct: expressed in transfected cells
Text: Functional Assessment of mGluR5 Antagonism in Cell Lines Expressing mGluR5D
The properties of the compounds of the invention can be analyzed using standard assays for pharmacological activity. Examples of glutamate receptor assays are well known in the art as described in for example Aramori et al., Neuron 8:757 (1992), Tanabe et al., Neuron 8:169 (1992), Miller et al., J. Neuroscience 15: 6103 (1995), Balazs, et al., J. Neurochemistry 69:151 (1997). The methodology described in these publications is incorporated herein by reference. Conveniently, the compounds of the invention can be studied by means of an assay (FLIPR) that measures the mobilization of intracellular calcium, [Ca^2+]i in cells expressing mGluR5 or another assay (IP3) that measures inositol phosphate accumulation.
Cells expressing human mGluR5d as described in WO97/05252 cultured in a mixture of high glucose DMEM with Glutamax (31966-021) (500 mL), 10% dialyzed fetal bovine serum (Hyclone #SH30079.03)(56 mL), 200 ug/mL Hygromycin B (Invitrogen 45-0430, 50 mg/mL) (2.2 mL), 200 ug/mL Zeocin (Invitrogen #R250-01; 100 mg/mL) (1.1 mL) are seeded at a density of 15,000 cells per well on a black poly-D Lysin coated 384-plate with clear bottom (BD Biocoat 356663). Cells are allowed to adhere over night before experiments. All assays are done in a buffer containing 146 mM NaCl, 5 mM KCl, 1 mM MgCl2, 1 mM CaCl2, 20 mM HEPES, 1 mg/mL glucose and 1 mg/mL BSA Fraction IV (pH 7.4). Cell cultures in the 384-well plates are loaded for 60 minutes in the above mentioned buffer containing 3 μM of the acetoxymethyl ester form of the fluorescent calcium indicator fluo-4 (Molecular Probes, Eugene, Oreg.) in 0.025% pluronic acid (a proprietary, non-ionic surfactant polyol—CAS Number 9003-11-6). Following the loading period, the fluo-4 buffer is removed and the cellplate is washed three times with fresh assay buffer. FLIPR experiments are done using a laser setting of 1.0 W and 0.4 second CCD camera shutter speed with excitation and emission wavelengths of 488 nm and 562 nm, respectively.
Each experiment is initiated with 20 μl of buffer present in each well of the cell plate when 7.5 μl from the antagonist plate is added. After 30 minutes incubation in the dark at 25° C., 20 μL from the agonist plate is added to the wells. The fluorescence signal is sampled 60 times at 1 second intervals followed by 20 samples at 6 seconds intervals immediately after the agonist addition. Responses are measured as the difference between the peak height of the response to agonist, less the background fluorescence within the sample period. IC50 determinations are made using a […] least squares fitting program.

[2] = Determination of brain to plasma ratio in rat; assay type: in vivo; details: brain and plasma, female Sprague Dawley rats, drug in brain over drug in plasma, read-out: Brain/Plasma Ratio of compound in Rat
Method: Brain to plasma ratios are estimated in female Sprague Dawley rats. The compound is dissolved in water or another appropriate vehicle. For determination of brain to plasma ratio the compound is administrated as a subcutaneous, or an intravenous bolus injection, or an intravenous infusion, or an oral administration. At a predetermined time point after the administration a blood sample is taken with cardiac puncture. The rat is terminated by cutting the heart open, and the brain is immediately retained. The blood samples are collected in heparinized tubes and centrifuged within 30 minutes, in order to separate the plasma from the blood cells. The plasma is transferred to 96-well plates and stored at −20° C. until analysis. The brains are divided in half, and each half is placed in a pre-tarred tube and stored at −20° C. until analysis. Prior to the analysis, the brain samples are thawed and 3 mL/g brain tissue of distilled water is added to the tubes. The brain samples are sonicated in an ice bath until the samples are homogenized. Both brain and plasma samples are precipitated with acetonitrile. After centrifugation, the supernatant is diluted with 0.2% formic acid. Analysis is performed on a short reversed-phase HPLC column with rapid gradient elution and MSMS detection using a triple quadrupole instrument with electrospray ionisation and Selected Reaction Monitoring (SRM) acquisition. Liquid-liquid extraction may be used as an alternative sample clean-up. The samples are extracted, by shaking, to an organic solvent after addition of a suitable buffer. An aliquot of the organic layer is transferred to a new vial and evaporated to dryness under a stream of nitrogen. After reconstitution of the residuals the samples are ready for injection onto the HPLC column.

T1 sequence (P41594 21-942 isoform P41594-3 limits assumed): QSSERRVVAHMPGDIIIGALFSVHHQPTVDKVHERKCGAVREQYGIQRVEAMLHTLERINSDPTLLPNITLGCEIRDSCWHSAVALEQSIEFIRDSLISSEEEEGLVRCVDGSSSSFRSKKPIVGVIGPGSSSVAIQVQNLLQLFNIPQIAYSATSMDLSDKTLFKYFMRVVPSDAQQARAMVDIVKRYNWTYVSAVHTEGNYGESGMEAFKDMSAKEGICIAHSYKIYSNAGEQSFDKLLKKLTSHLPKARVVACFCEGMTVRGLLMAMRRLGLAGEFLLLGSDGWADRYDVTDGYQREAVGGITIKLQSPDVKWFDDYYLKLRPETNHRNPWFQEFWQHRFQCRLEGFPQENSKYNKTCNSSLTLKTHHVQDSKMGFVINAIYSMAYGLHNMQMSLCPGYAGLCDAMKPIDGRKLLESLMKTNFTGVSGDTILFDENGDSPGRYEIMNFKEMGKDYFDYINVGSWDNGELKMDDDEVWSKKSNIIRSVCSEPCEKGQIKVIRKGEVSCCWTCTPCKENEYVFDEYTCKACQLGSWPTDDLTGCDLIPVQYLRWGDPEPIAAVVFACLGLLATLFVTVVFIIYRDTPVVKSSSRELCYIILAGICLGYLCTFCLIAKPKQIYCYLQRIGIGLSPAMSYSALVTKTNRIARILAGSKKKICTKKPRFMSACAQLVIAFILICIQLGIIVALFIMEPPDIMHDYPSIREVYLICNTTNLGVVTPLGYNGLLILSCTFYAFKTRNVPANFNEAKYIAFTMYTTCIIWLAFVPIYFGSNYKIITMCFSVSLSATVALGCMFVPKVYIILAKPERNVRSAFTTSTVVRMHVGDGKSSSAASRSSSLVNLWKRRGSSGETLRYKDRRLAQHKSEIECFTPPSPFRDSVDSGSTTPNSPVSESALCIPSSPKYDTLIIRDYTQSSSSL

Row | Structure (SMILES) | IC50 [1] | Kp [2]
1 | Cc1cccc(-n2nnc([C@@H](C)Sc3nnc(-c4cc[nH]c(=O)c4)n3C)n2)c1 [Example 8.1, (R)-4-(4-Methyl-5-(1-(2-m-tolyl-2H-tetrazol-5-yl)ethylthio)-4H-1,2,4-triazol-3-yl)pyridin-2(1H)-one] | 0.019 µM | < 0.01
2 | Cc1cccc(-n2nnc([C@@H](C)Sc3nnc(-c4ccn(C)c(=O)c4)n3C)n2)c1 [Example 8.2, (R)-1-Methyl-4-(4-methyl-5-(1-(2-m-tolyl-2H-tetrazol-5-yl)ethylthio)-4H-1,2,4-triazol-3-yl)pyridin-2(1H)-one] | 0.087 µM | 0.1
3 | Cc1cccc(-c2nc([C@@H](C)Sc3nnc(-c4cc[nH]c(=O)c4)n3C)no2)c1 [Example 8.3] | 0.024 µM | 0.09
4 | Cc1cccc(-c2nc([C@@H](C)Sc3nnc(-c4ccn(C)c(=O)c4)n3C)no2)c1 [Example 8.4, (R)-1-Methyl-4-(4-methyl-5-(1-(5-m-tolyl-1,2,4-oxadiazol-3-yl)ethylthio)-4H-1,2,4-triazol-3-yl)pyridin-2(1H)-one] | 0.03 µM | 0.16
5 | Cc1cccc(-c2cc([C@@H](C)Sc3nnc(-c4cc[nH]c(=O)c4)n3C)no2)c1 [Example 8.5, (R)-4-(4-Methyl-5-(1-(5-m-tolylisoxazol-3-yl)ethylthio)-4H-1,2,4-triazol-3-yl)pyridin-2(1H)-one] | 0.146 µM | < 0.01
6 | Cc1cccc(-c2cc([C@@H](C)Sc3nnc(-c4ccn(C)c(=O)c4)n3C)no2)c1 [Example 8.6, (R)-1-Methyl-4-(4-methyl-5-(1-(5-m-tolylisoxazol-3-yl)ethylthio)-4H-1,2,4-triazol-3-yl)pyridin-2(1H)-one] | 0.38 µM | 0.02
7 | Cc1cccc(-c2cc([C@@H](C)Sc3nnc(-c4cn[nH]c(=O)c4)n3C)no2)c1 [Example 8.7, (R)-5-(4-Methy1-5-(1-(5-m-tolylisoxazol-3-yl)ethylthio)-4H-1,2,4-triazol-3-yl)pyridazin-3(2H)-one] | 0.019 µM | 0.26
8 | Cc1cccc(-n2nnc([C@@H](C)Sc3nnc(-c4cn[nH]c(=O)c4)n3C)n2)c1 [Example 8.8, (R)-5-(4-Methyl-5-(1-(2-m-tolyl-2H-tetrazol-5-yl)ethylthio)-4H-1,2,4-triazol-3-yl)pyridazin-3(2H)-one] | 0.018 µM | < 0.01
9 | C[C@@H](Sc1nnc(-c2cn[nH]c(=O)c2)n1C)c1nnn(-c2cccc(Cl)c2)n1 [Example 8.9, (R)-5-(5-(1-(2-(3-Chlorophenyl)-2H-tetrazol-5-yl)ethylthio)-4-methyl-4H-1,2,4-triazol-3-yl)pyridazin-3(2H)-one] | 0.018 µM | < 0.015
10 | Cc1cccc(-c2nc([C@@H](C)Sc3nnc(-c4cn[nH]c(=O)c4)n3C)no2)c1 [Example 8.10, (R)-5-(4-Methyl-5-(1-(5-m-tolyl-1,2,4-oxadiazol-3-yl)ethylthio)-4H-1,2,4-triazol-3-yl)pyridazin-3(2H)-one] | 0.041 µM | 0.04
